Test results from patent publication US20100249413A1, “STABILIZED PHARMACEUTICAL COMPOSITION” (priority 2006, published 2010).

Legend:
[1] = bulk material, reported in Patent Document 2; cited from earlier work
[2] = reported in Patent Document 1; cited from earlier work
[3] = tested on: cancer proliferation; details: reported in Patent Document 1; cited from earlier work
[4] = bulk material, reported in Patent Document 2; cited from earlier work; remark: listed apart in the source
[5] = Light stability of compound A solution with various stabilizers: photolyzed substances by HPLC (Experimental Example 1); assay type: physicochemical; details: compound A drug solution 5 mg/mL, D65 lamp/1000 lux, 24 hours, room temperature
Method: Each sample was stored upside-down under a condition of D65 lamp/1000 lux in a constantly changing room temperature for 24 hours to evaluate the stability by measuring the increased amounts of photolyzed substances. The measurement of photolyzed substances was carried out using HPLC.
Mobile phase (liquid A): 0.1% trifluoroacetic acid aqueous solution/acetonitrile=9:2, (liquid B) acetonitirle, gradient % (capacity) B: 0% (0 to 60 min)/linear 75% (60 to 80 min)/linear 0% (80 to 100 min), column:TSK-gel ODS-80TsQA, 4.6×150 mm, particle diameter 5 μm (produced by Tosoh Corp.), flow rate: 1 mL/min, column temperature: 40° C., detection: UV 270 nm.

Photolyzed Substance Amount (%) [5] [%]	SMILES	hygroscopicity [1]	toxicity [2]	cancer proliferation-inhibitory activity in vivo [3]	storage stability (humidity, long-term storage) [4]
	COCCn1c2c([n+](Cc3cnccn3)c1C)C(=O)c1ccccc1C2=O.[Cl-] [chloride of compound A, 1-(2-methoxyethyl)-2-methyl-4,9-dioxo-3-(pyrazin-2-ylmethyl)-4,9-dihydro-1H-naphtho[2,3-d]imidazol-3-ium chloride]	has hygroscopicity	low in toxicity	excellent cancer proliferation-inhibitory activity in vivo	unstable to humidity
3.4	COCCn1c2c([n+](Cc3cnccn3)c1C)C(=O)c1ccccc1C2=O [compound A, 1-(2-methoxyethyl)-2-methyl-4,9-dioxo-3-(pyrazin-2-ylmethyl)-4,9-dihydro-1H-naphtho[2,3-d]imidazol-3-ium]				
